These results are taken from patent publication US8673915B2, “P 2×4 receptor antagonist” (Nippon Chemiphar Co., Ltd., priority 2010, dated 2014).

In general, IC50 refers to the concentration that inhibits the measured activity by half.

Structures can show the parent of a compound that is named as a salt.

In the first experiment the target is T1, P2X4 receptor (Homo sapiens, UniProt Q99571).
T1 sequence (Q99571 1-388): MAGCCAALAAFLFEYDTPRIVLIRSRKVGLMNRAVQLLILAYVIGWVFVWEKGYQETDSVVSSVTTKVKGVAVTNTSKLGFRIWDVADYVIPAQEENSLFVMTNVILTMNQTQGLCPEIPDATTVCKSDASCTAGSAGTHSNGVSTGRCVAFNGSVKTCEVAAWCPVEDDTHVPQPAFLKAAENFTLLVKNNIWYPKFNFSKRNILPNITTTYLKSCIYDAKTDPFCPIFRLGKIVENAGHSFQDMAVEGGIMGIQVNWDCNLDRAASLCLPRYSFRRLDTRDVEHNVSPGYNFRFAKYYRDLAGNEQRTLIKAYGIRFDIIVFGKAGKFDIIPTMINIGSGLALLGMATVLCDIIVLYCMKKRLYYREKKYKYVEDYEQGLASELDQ
Kind of experiment: Intracellular calcium assay (Fura-2 AM) of ATP-induced calcium influx in 1321N1 cells stably expressing human P2X4 receptors. Particulars: Table 25, Example 30; 1321N1 cells expressing human P2X4; compounds added 15 minutes before ATP; Fura-2 340/380 nm ratio; read-out: IC50 (P2X4 receptor antagonism). It counts as cell-based. How it is done: 1321N1 cells stably expressing human P2X4 receptors were plated in 96-well assay plate and cultured 24 hours at 37° C. in an atmosphere of 5% CO2 for intracellular calcium assay. Fura-2 AM calcium fluorescent indicator was used for the intracellular calcium assay. Fura-2 AM was dissolved in an assay buffer, and the solution was loaded onto cells. The obtained plate was used for fluorescent assay. Test compounds were treated to cells 15 minutes before the addition of ATP, and the response to intracellular calcium influx induced by addition of ATP was monitored by a micro plate reader. The fluorescence ratio of excitations wavelengths of 340 nm and 380 nm was used as the index of intracellular calcium change. The inhibition activities of the test compounds were calculated by comparison with the absence of the test compound (control).
P2X4 receptor antagonism of the compound of the present invention was measured as described below.
P2X4 receptor antagonism of the compound of the present invention was measured in the same manner as in Example 30.
Background: A change in cytosolic calcium serves as a functional read-out for many receptors and channels.
As to `Nc1cccc(-n2c(=O)c(=O)[nH]c3c4c(ccc32)CCCC4)c1` [Example 7, 4-(3-Aminophenyl)-1,4,7,8,9,10-hexahydrobenzo[f]quinoxaline-2,3-dione hydrochloride], the IC50 was 5.1 µM.

As to `O=c1[nH]c2c3c(ccc2n(-c2cccc(NS(=O)(=O)c4ccccc4[N+](=O)[O-])c2)c1=O)CCCC3` [Example 9, N-[3-(2,3-Dioxo-2,3,7,8,9,10-hexahydrobenzo[f]quinoxalin-4(1H)-yl)phenyl]-2-nitrobenzenesulfonamide], the IC50 is 2.1 µM.

Turning to `COc1cccc(-n2c(=O)c(=O)[nH]c3c4ccccc4ccc32)c1` [Example 3, 4-(3-Methoxyphenyl)-1,4-dihydrobenzo[f]quinoxaline-2,3-dione], the IC50 is 6.6 µM.

In the case of `O=c1[nH]c2c3ccccc3ccc2n(-c2cccc(-c3nnn[nH]3)c2)c1=O` [Example 2, 4-[3-(1H-Tetrazol-5-yl)phenyl]-1,4-dihydrobenzo[f]quinoxaline-2,3-dione sodium salt], the IC50 worked out at 0.46 µM.

Staying with this experiment, now noted: Table 26, Example 31; same manner as in Example 30; read-out: IC50 (P2X4 receptor antagonism).
For `O=C(Cc1ccccc1I)Nc1cccc(-n2c(=O)c(=O)[nH]c3c4ccccc4ccc32)c1` [Example 14, 4-[3-[(2-Iodophenylacetyl)amino]phenyl)-1,4-dihydrobenzo[f]quinoxaline-2,3-dione], the IC50 came to 0.88 µM.

Consider `O=c1[nH]c2c3ccccc3ccc2n(-c2ccc(O)cc2)c1=O` [Example 17, 4-(4-Hydroxyphenyl)-1,4-dihydrobenzo[f]quinoxaline-2,3-dione sodium salt], for which the IC50 came to 2.7 µM.

As for `O=c1[nH]c2c3c(ccc2n(-c2cccc(NS(=O)(=O)c4cccc5ccccc45)c2)c1=O)CCCC3` [Example 24, N-[3-(2,3-Dioxo-2,3,7,8,9,10-hexahydro-1H-benzo[f]quinoxalin-4-yl)phenyl]-1-naphthalenesulfonamide], the IC50 stood at 2.6 µM.

As to `O=c1[nH]c2c3c(ccc2n(-c2cccc(NS(=O)(=O)c4ccccc4)c2)c1=O)CCCC3` [Example 22, N-[3-(2,3-Dioxo-2,3,7,8,9,10-hexahydro-1H-benzo[f]quinoxalin-4-yl)phenyl]benzenesulfonamide], the IC50 was found to be 0.8 µM.

Regarding `Nc1cccc(-n2c(=O)c(=O)[nH]c3c4ccccc4ccc32)c1` [Example 13, 4-(3-Aminophenyl)-1,4-dihydrobenzo[f]quinoxaline-2,3-dione hydrochloride], the IC50 stood at 2.1 µM.

Take `O=C(Nc1cccc(-n2c(=O)c(=O)[nH]c3c4c(ccc32)CCCC4)c1)c1ccccc1C(F)(F)F` [Example 21]: the IC50 worked out at 7.7 µM.

For the molecule `O=c1[nH]c2c3c(ccc2n(-c2cccc(NS(=O)(=O)c4cccc(Br)c4)c2)c1=O)CCCC3` [Example 23, 3-Bromo-N-[3-(2,3-dioxo-2,3,7,8,9,10-hexahydro-1H-benzo[f]quinoxalin-4-yl)phenyl]benzenesulfonamide], the IC50 was found to be 1.3 µM.

In the case of `Cc1nnc(-c2cccc(-n3c(=O)c(=O)[nH]c4c5ccccc5ccc43)c2)o1` [Example 15, 4-[3-(5-Methyl-[1,3,4]oxadiazol-2-yl)phenyl]-1,4-dihydrobenzo[f]quinoxaline-2,3-dione], the IC50 was 6.7 µM.

Turning to `O=c1[nH]c2c3c(ccc2n(-c2cccc(NS(=O)(=O)c4cccc5cccnc45)c2)c1=O)CCCC3` [Example 28, N-[3-(2,3-Dioxo-2,3,7,8,9,10-hexahydro-1H-benzo[f]quinoxalin-4-yl)phenyl]-8-quinolinesulfonamide hydrochloride], the IC50 was 1.9 µM.

As for `Nc1ccc(-n2c(=O)c(=O)[nH]c3c4ccccc4ccc32)cc1` [Example 18, 4-(4-Aminophenyl)-1,4-dihydrobenzo[f]quinoxaline-2,3-dione hydrochloride], the IC50 came out at 5.7 µM.

Take `O=c1[nH]c2c3c(ccc2n(-c2cccc(NS(=O)(=O)c4cccnc4)c2)c1=O)CCCC3` [Example 27, N-[3-(2,3-Dioxo-2,3,7,8,9,10-hexahydro-1H-benzo[f]quinoxalin-4-yl)phenyl]-3-pyridinesulfonamide hydrochloride]: the IC50 is 3 µM.

`O=c1[nH]c2c3c(ccc2n(-c2cccc(NS(=O)(=O)c4cccs4)c2)c1=O)CCCC3` [Example 26, N-[3-(2,3-Dioxo-2,3,7,8,9,10-hexahydro-1H-benzo[f]quinoxalin-4-yl)phenyl]-2-thiophenesulfonamide]: the IC50 is 1.8 µM.

A further experiment addresses T1, P2X4 receptor.
Experiment: not given
Particulars: disclosed in Non-patent document 8; cited from earlier work.
In the case of `Fc1ccc([C@@H]2CCNC[C@H]2COc2ccc3c(c2)OCO3)cc1` [Paroxetine], the P2X4 receptor antagonism entry is “shows P2X4 receptor antagonism”.
